# pIC50: −log10 of the molar value.
# Columns and labels:
# [1] = biological target: T1, neurokinin-1 (NK-1) receptor (Homo sapiens, UniProt P25103); experiment: NK-1 binding assay, [125I] Substance P competition on U373 cell membranes; conditions: Bolton Hunter labeled [125I] Substance P displacement
# T1 construct: endogenously expresses the neurokinin-1 (NK-1) receptor; endogenous in cells; host or cells: U373 human glioblastoma-astrocytoma cells (membranes)
# Method: U373 cells, a human glioblastoma-astrocytoma cell line that endogenously expresses the neurokinin-1 (NK-1) receptor, were grown in a monolayer culture at 37° C. in 5% CO2 and fed with Minimum Essential Medium (MEM) supplemented with 10% fetal bovine serum. Membranes were prepared as follows: Cells were washed twice with ice-cold phosphate-buffered saline (pH 7.4) and then incubated for 5 to 10 minutes with ice-cold 10 mM Tris buffer (pH 7.4) containing 5 mM EDTA. Cells were removed from plates, homogenized, and centrifuged at 32,000×g for 20 minutes. The resulting supernatant was discarded, and the pellet resuspended by homogenization in 50 mM Tris buffer (pH 7.4) containing 1 mM EDTA and centrifuged at 32,000×g for 20 minutes. […]
# On the day of an experiment the membrane preparation was thawed, homogenized and diluted with NK-1 binding assay buffer to the appropriate concentration. […] The amount of radioligand bound in the presence and absence of competitor was analyzed by plotting (−)log drug concentration versus the amount of radioligand specifically bound. […] Ki values were calculated using the method of Cheng and Prusoff [Cheng, Y.-C. and Prusoff, W. H., Biochemical Pharmacology, Vol. 22, pp. 3099-3108, Pergamon Press (1973)].
# [2] = biological target: T2, human serotonin transporters (Homo sapiens, UniProt P31645); experiment: Serotonin transporter binding assay, [3H]-citalopram competition on HEK-hSERT cell membranes; conditions: 1 nM [3H]-citalopram displacement, read-out: SERT IC50
# T2 construct: expressed in transfected cells
# T2 sequence (P31645 whole entry): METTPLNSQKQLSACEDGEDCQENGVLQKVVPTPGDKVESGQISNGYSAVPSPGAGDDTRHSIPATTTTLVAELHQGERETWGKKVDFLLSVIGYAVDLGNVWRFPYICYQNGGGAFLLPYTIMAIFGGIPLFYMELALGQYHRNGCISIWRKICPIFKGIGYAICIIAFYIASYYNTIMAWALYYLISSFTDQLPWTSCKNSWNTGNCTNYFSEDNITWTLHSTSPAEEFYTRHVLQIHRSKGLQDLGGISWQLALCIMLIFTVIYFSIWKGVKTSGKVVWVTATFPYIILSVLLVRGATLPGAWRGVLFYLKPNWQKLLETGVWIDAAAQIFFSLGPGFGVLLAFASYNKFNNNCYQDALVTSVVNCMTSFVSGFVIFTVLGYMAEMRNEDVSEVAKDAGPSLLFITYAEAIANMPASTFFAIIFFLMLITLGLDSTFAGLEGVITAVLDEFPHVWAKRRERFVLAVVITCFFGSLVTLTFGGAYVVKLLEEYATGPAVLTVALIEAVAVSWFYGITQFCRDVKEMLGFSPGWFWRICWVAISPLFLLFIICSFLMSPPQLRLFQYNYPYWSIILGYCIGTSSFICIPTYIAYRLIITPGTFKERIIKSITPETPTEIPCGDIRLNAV
# Method: HEK-293 cells that stably express human serotonin transporters (HEK-hSERT cells) were grown at 37° C. in 5% CO2 as a monolayer in medium consisting of EMEM supplemented with 10% fetal bovine serum and G418 sulfate (500 μg/ml). To prepare membranes for radioligand binding experiments, cells were rinsed twice with phosphate-buffered saline (138 mM NaCl, 4.1 mM KCl, 5.1 mM Na2PO4, 1.5 mM […], 11.1 mM glucose, pH 7.4). Cells were transferred from plates to polypropylene tubes (16×100 mm), centrifuged at 1,200×g for 5 min and were frozen at −80° C. until assay. Following centrifugation, pellets were resuspended by homogenization in buffer consisting of 50 mM Tris (pH 7.7 at 25° C.), 120 mM NaCl and 5 mM KCl and then centrifuged at 32,000×g for 10 min. Following centrifugation, supernatants were discarded and pellets were resuspended in buffer consisting of 50 mM Tris (pH 7.4 at 25° C.), 150 mM NaCl and 5 mM KCl. […] Amount of radioligand bound in the presence and absence of competitor was analyzed by plotting (−)log drug concentration versus the amount of radioligand specifically bound. […] Ki values were calculated using the method of Cheng and Prusoff Cheng and Prusoff [Cheng, Y.-C. and Prusoff, W. H., Biochemical Pharmacology, Vol. 22, pp. 3099-3108, Pergamon Press (1973)].
# T1 sequence (P25103 whole entry): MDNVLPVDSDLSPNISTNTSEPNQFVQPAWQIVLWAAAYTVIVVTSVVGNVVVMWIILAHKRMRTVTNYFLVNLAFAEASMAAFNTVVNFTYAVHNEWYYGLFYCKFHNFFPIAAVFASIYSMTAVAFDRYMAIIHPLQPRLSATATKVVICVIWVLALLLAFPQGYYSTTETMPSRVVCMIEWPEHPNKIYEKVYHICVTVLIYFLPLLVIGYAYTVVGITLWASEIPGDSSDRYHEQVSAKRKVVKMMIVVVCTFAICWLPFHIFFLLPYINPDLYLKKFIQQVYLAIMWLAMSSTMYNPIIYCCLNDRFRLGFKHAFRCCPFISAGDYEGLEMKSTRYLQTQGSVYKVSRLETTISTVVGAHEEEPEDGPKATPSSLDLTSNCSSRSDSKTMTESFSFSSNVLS
SMILES,pIC50 [1],pIC50 [2]
"FC(F)(F)c1cc(COCC2(c3ccccc3)CCCNCCC2)cc(C(F)(F)F)c1 [Example 2, 5-((3,5-bis(trifluoromethyl)benzyloxy)methyl)-5-phenylazocane]",> 7.70,7.00 to 7.70
"FC(F)(F)c1cc(COCC2(c3ccccc3)CCCCNCC2)cc(C(F)(F)F)c1 (stereo not shown) [Example 1, 4-((3,5-bis(trifluoromethyl)benzyloxy)methyl)-4-phenylazocane]",> 7.70,7.00 to 7.70
